Assay results as given in US6063782A, “Pyrrolopyridazine derivatives” (Sankyo Company, Limited, priority 1994, dated 2000).
One block for each molecule: values may come before it.

How the values were obtained:
[1] = system: Helicobacter pylori strains 9470, 9472 and 9474; assay: Antibacterial activity against Helicobacter pylori; assay type: cell-based; settings: strains 9470, 9472 and 9474, 37° C., 3 days, slightly aerobic; result given in words only
Procedure: Antibacterial activity against Helicobacter pylori The antibacterial activity of the compounds of the present invention were evaluated by measuring the minimum inhibitory concentration values (MIC) of the present compounds against Helicobacter pylori strains 9470, 9472 and 9474. These strains of Helicobacter pylori were incubated for 4 days on a plate medium. The medium was prepared by dissolving brain heart infusion agar (Product of DIFCO) in a defined amount of distilled water, by sterilization in an autoclave, injecting horse blood (Product of Nihon Seibutsu Zairyo Co.) into each plate for the medium to contain 7% of the blood and by solidifying. Under slightly aerobic conditions, Helicobacter pylori cultivated at 37° C. for 4 days was suspended in a physiological saline solution for its inocular size to be about 10^8 CFU/ml. The suspension was diluted 100 times, and about 10 μl of the diluted suspension was inoculated on a medium for MIC determination. The medium for MIC determination used had the same compounds as those for preculture. […] In a similar way to the preculture, Helicobacter pylori was cultivated at 37° C. for 3 days under slightly aerobic conditions. […] The minimum concentration which gave no bacterial growth was regarded as MIC of the compound of the present invention.

gastric acid secretion = assay: Gastric acid secretion activity test using pyloric ligation in rats (Shay rat method); assay type: in vivo; settings: male SD rats, 20 mg/kg injected into the duodenal region, 4 hours, result given in words only
Procedure: Gastric acid secretion activity test using pyloric ligation in rats (Shay rat method)
Pyloric ligation was conducted based on the method of Shay et al. [Gastroenterology, 5, 43 (1945)]. Male rats of SD strain were fasted for 24 hours; their abdomens were sectioned during anesthesia under ether. The duodenal and pyloric regions were exposed and the latter was ligated. A solution of a test compound (10 mg/ml) prepared by use of 1.5w parts of dimethylacetamide, 68.5% parts of polyethyleneglycol (PEG-400) and 30% parts of physiological saline solution, was injected into the duodenal region for the dose to be 20 mg/kg by use of a 1-ml syringe and an injection needle (26G). After injection of the test compound, the abdominal region was sutured. The animals were allowed to a stand for 4 hours without feeding food and water and then sacrified with carbon dioxide gas. The stomach was excised and gastric juice was gathered. The gastric juice sample was centrifuged (4° C., 2500 rpm, 15 minutes). The amount of the supernatant was measured to be as the gastric secretion. The acidity of the gastric juice was determined by the amount (ml) of 0.01 N sodium hydroxide solution required for titration of 0.1 ml of the supernatant to pH 7.0 by use of-an auto-titrating apparatus. The value of gastric acid secretion was calculated from the value of gastric secretion and the acidity of gastric juice. The inhibiting rate was obtained from the values of gastric acid secretion of the control group and of the administered group.

SMILES: Cc1c(C)n(CCCF)c2c(OCc3ccccc3)nncc12 [Example 19, 7-Benzyloxy-1-(3-fluoropropyl)-2,3-dimethylpyrrolo[2,3-d]pyridazine]
minimum inhibitory concentration (MIC) against Helicobacter pylori [1]: excellent antibacterial activity

SMILES: C=C=Cn1c(C)c(C)c2cnnc(OCc3ccccc3)c21 [Example 45, 7-Benzyloxy-2,3-dimethyl-1-(propane-1,2-dienyl)pyrrolo[2,3-d]pyridazine]
minimum inhibitory concentration (MIC) against Helicobacter pylori [1]: excellent antibacterial activity

SMILES: Cc1c(C)n(C/C=C/c2ccccc2)c2c(OCc3ccccc3)nncc12 [Example 6, 7-Benzyloxy-2,3-dimethyl-1-(3-phenyl-2-propenyl)pyrrolo[2,3-d]pyridazine]
minimum inhibitory concentration (MIC) against Helicobacter pylori [1]: excellent antibacterial activity

SMILES: C=CCn1c(C)c(CC)c2cnnc(OCc3ccccc3)c21 [Example 27, 7-Benzyloxy-3-ethyl-2-methyl-1-(2-propenyl)-6pyrrolo[2,3-d]pyridazine]
minimum inhibitory concentration (MIC) against Helicobacter pylori [1]: excellent antibacterial activity

SMILES: Cc1c(C)n(CC(F)F)c2c(OCc3ccccc3)nncc12 [Example 20, 7-Benzyloxy-1-(2,2-difluoroethyl)-2,3-dimethylpyrrolo[2,3-d]pyridazine]
minimum inhibitory concentration (MIC) against Helicobacter pylori [1]: excellent antibacterial activity

SMILES: Cc1c(C)n(CC(F)(F)F)c2c(OCc3ccccc3)nncc12 [Example 15, 7-Benzyloxy-2,3-dimethyl-1-(2,2,2-trifluoroethyl)pyrrolo[2,3-d]pyridazine]
minimum inhibitory concentration (MIC) against Helicobacter pylori [1]: excellent antibacterial activity

SMILES: Cc1c(C)n(CC2CC2C)c2c(CCc3ccccc3)nncc12 (stereo not drawn) [Example 68, 2,3-Dimethyl-1-(2-methylcyclopropylmethyl)-7-phenethylpyrrolo[2,3-d]pyridazine]
inhibiting rate of gastric acid secretion (gastric acid secretion): excellent activity

SMILES: C=CCn1c(C)c(C)c2cnnc(OCc3ccccc3)c21 [Example 3, 7-Benzyloxy-2,3-dimethyl-1-(2-propenyl)pyrrolo[2,3-d]pyridazine]
inhibiting rate of gastric acid secretion (gastric acid secretion): excellent activity | minimum inhibitory concentration (MIC) against Helicobacter pylori [1]: excellent antibacterial activity

SMILES: Cc1c(C)n(C2CCCCC2)c2c(OCc3ccccc3)nncc12 [Example 23, 7-Benzyloxy-1-cyclohexyl-2,3-dimethylpyrrolo[2,3-d]pyridazine]
minimum inhibitory concentration (MIC) against Helicobacter pylori [1]: excellent antibacterial activity

SMILES: CC/C=C/Cn1c(C)c(C)c2cnnc(OCc3ccccc3)c21 [Example 11, 7-Benzyloxy-2,3-dimethyl-1-(2-pentenyl)pyrrolo[2,3-d]pyridazine]
inhibiting rate of gastric acid secretion (gastric acid secretion): excellent activity | minimum inhibitory concentration (MIC) against Helicobacter pylori [1]: excellent antibacterial activity

SMILES: CC(C)=CCn1c(C)c(C)c2cnnc(OCc3ccccc3)c21 [Example 2, 7-Benzyloxy-2,3-dimethyl-1-(3-methyl-2-butenyl)pyrrolo[2,3-d]pyridazine]
minimum inhibitory concentration (MIC) against Helicobacter pylori [1]: excellent antibacterial activity

SMILES: CC=CCn1c(C)c(C)c2cnnc(OCc3cccnc3)c21 [Example 32, 1-(2-Butenyl)-2,3-dimethyl-7-(3-pyridylmethyloxy)pyrrolo[2,3-d]pyridazine]
inhibiting rate of gastric acid secretion (gastric acid secretion): excellent activity

SMILES: C/C=C/Cn1c(CC)c(C)c2cnnc(OCc3ccc(F)cc3)c21 [Example 33, 1-(2-Butenyl)-2-ethyl-7-(4-fluorobenzyloxy)-3-methylpyrrolo[2,3-d]pyridazine]
inhibiting rate of gastric acid secretion (gastric acid secretion): excellent activity

SMILES: Cc1c(C)n(CCF)c2c(OCc3ccccc3)nncc12 [Example 18, 7-Benzyloxy-1-(2-fluoroethyl)-2,3-dimethylpyrrolo[2,3-d]pyridazine]
minimum inhibitory concentration (MIC) against Helicobacter pylori [1]: excellent antibacterial activity

SMILES: C=Cn1c(C)c(C)c2cnnc(OCc3ccccc3)c21 [Example 13, 7-Benzyloxy-2,3-dimethyl-1-vinylpyrrolo[2,3-d]pyridazine]
minimum inhibitory concentration (MIC) against Helicobacter pylori [1]: excellent antibacterial activity

SMILES: CC=CCn1c(C)c(C)c2cnnc(CCc3ccc(F)cc3)c21 [Example 62, 1-(2-Butenyl)-7-(4-fluorophenethyl)-2,3-dimethylpyrrolo[2,3-d]pyridazine]
inhibiting rate of gastric acid secretion (gastric acid secretion): excellent activity

SMILES: C#CCn1c(C)c(C)c2cnnc(OCc3ccccc3)c21 [Example 42, 7-Benzyloxy-2,3-dimethyl-1-(2-propynyl)pyrrolo[2,3-d]pyridazine]
inhibiting rate of gastric acid secretion (gastric acid secretion): excellent activity

SMILES: Cc1c(C)n(CC=C(Cl)Cl)c2c(OCc3ccccc3)nncc12 [Example 41, 7-Benzyloxy-1-(3,3-dichloro-2-propenyl)-2,3-dimethylpyrrolo[2,3-d]pyridazine]
inhibiting rate of gastric acid secretion (gastric acid secretion): excellent activity

SMILES: C=C(C)Cn1c(C)c(C)c2cnnc(OCc3ccc(F)cc3)c21 [Example 26, 7-(4-Fluorobenzyloxy)-2,3-dimethyl-1-(2-methyl-2-propenyl)pyrrolo[2,3-d]pyridazine]
inhibiting rate of gastric acid secretion (gastric acid secretion): excellent activity

SMILES: Cc1c(C)n(CC2CCCCC2)c2c(OCc3ccc(F)cc3)nncc12 [Example 37, 1-Cyclohexylmethyl-7-(4-fluorobenzyloxy)-2,3-dimethylpyrrolo[2,3-d]pyridazine]
inhibiting rate of gastric acid secretion (gastric acid secretion): excellent activity

SMILES: CC=CCn1c(C)c(C)c2cnnc(OCc3c(F)cccc3Cl)c21 [Example 40, 1-(2-Butenyl)-7-(2-chloro-6-fluorobenzyloxy)-2,3-dimethylpyrrolo[2,3-d]pyridazine]
inhibiting rate of gastric acid secretion (gastric acid secretion): excellent activity

Next, values leading:

minimum inhibitory concentration (MIC) against Helicobacter pylori [1]: excellent antibacterial activity
SMILES: C=CCn1c(C)c(C)c2cnnc(OCc3ccc(C(F)(F)F)cc3)c21 [Example 25, 2,3-Dimethyl-1-(2-propenyl)-7-(4-trifluoromethylbenzyloxy)pyrrolo[2,3-d]pyridazine]

minimum inhibitory concentration (MIC) against Helicobacter pylori [1]: excellent antibacterial activity
SMILES: C=CCn1c(C)c(C)c2cnnc(OCc3ccccc3F)c21 [Example 10, 7-(2-Fluorobenzyloxy)-2,3-dimethyl-1-(2-propenyl)nvrrolo[2,3-d]pyridazine]

minimum inhibitory concentration (MIC) against Helicobacter pylori [1]: excellent antibacterial activity
SMILES: C=CCn1c(C)c(C)c2cnnc(OCc3cccc(F)c3)c21 [Example 8, 7-(3-Fluorobenzyloxy)-2,3-dimethyl-1-(2-propenyl)pyrrolo[2,3-d]pyridazine]

minimum inhibitory concentration (MIC) against Helicobacter pylori [1]: excellent antibacterial activity
SMILES: Cc1c(C)n(C/C=C/c2ccccc2)c2c(OCc3ccc(F)cc3)nncc12 [Example 24, 7-(4-Fluorobenzyloxy)-2,3-dimethyl-1-(3-phenyl-2-propenyl)pyrrolo[2,3-d]pyridazine]

minimum inhibitory concentration (MIC) against Helicobacter pylori [1]: excellent antibacterial activity
SMILES: CC=CCn1c(C)c(C)c2cnnc(SCc3c(F)cccc3Cl)c21 [Example 52, 1-(2-Butenyl)-7-(2-chloro-6-fluorobenzylthio)-2,3-dimethylpyrrolo[2,3-d]pyridazine]

minimum inhibitory concentration (MIC) against Helicobacter pylori [1]: excellent antibacterial activity
SMILES: CC=CCn1c(C)c(C)c2cnnc(SCc3ccc(F)cc3F)c21 [Example 51, 1-(2-Butenyl)-7-(2,4-difluorobenzylthio)-2,3-dimethylpyrrolo[2,3-d]pyridazine]

minimum inhibitory concentration (MIC) against Helicobacter pylori [1]: excellent antibacterial activity
SMILES: CC=CCn1c(C)c(C)c2cnnc(SCc3ccc(F)cc3)c21 [Example 50, 1-(2-Butenyl)-7-(4-fluorobenylthio)-2,3-dimethylpyrrolo[2,3-d]pyridazine]

minimum inhibitory concentration (MIC) against Helicobacter pylori [1]: excellent antibacterial activity
SMILES: C/C=C\Cn1c(C)c(C)c2cnnc(OCc3ccc(F)cc3)c21 [Example 29, 1-(2-Butenyl)-7-(4-fluorobenzyloxy)-2,3-dimethylpyrrolo[2,3-d]pyridazine]

minimum inhibitory concentration (MIC) against Helicobacter pylori [1]: excellent antibacterial activity
SMILES: CC=CCn1c(C)c(CC)c2cnnc(OCc3ccc(F)cc3)c21 [Example 56, 1-(2-Butenyl)-3-ethyl-7-(4-fluorobenzyloxy)-2-methylpyrrolo[2,3-d]pyridazine]

minimum inhibitory concentration (MIC) against Helicobacter pylori [1]: excellent antibacterial activity
SMILES: C=CCn1c(C)c(C)c2cnnc(SCc3ccc(F)cc3)c21 [Example 34, 7-(4-Fluorobenzylthio)-2,3-dimethyl-1--(2-propenyl)ipyrrolo[2,3-d]pyridazine]
